{"source": "paper PMC5011932", "about": "“Comparative pharmacokinetics and pharmacodynamics of intravenous artelinate versus artesunate in uncomplicated Plasmodium coatneyi-infected rhesus monkey model” (Malaria Journal, 2016)", "key": {"[1]": {"settings": "rhesus monkey, in vivo", "description": "(§1) These doses were chosen as the minimal effective doses (from previous model development and validation studies, unpublished data) and blood was collected for pharmacokinetic analysis. After a week wash-out and recovery period, P. coatneyi (1 mL of >50,000 parasitized RBCs per microlitre or 5 × 10^6 RBC with a 1 % parasitaemia) were inoculated from a donor monkey into all the monkeys. The treatment was initiated at day 6 after inoculation at a parasitaemia ≥3 % or >200,000 parasites μL^−1 when the cohort of animals was minimally symptomatic. Drugs were given for 3 days with a loading dose initially followed by ½ of the first dose on the 2nd and 3rd days.\n(§2) Blood was collected for pharmacokinetic/pharmacodynamics (PK/PD) analysis after the first dose only due to rapid clearance of artemisinin derivatives. Heparinized blood was collected at 0, 5, 20, 40 min, 1, 3, and 6 h post-dose and plasma samples were separated within 2 h by centrifugation (1500g, 10 min). Aliquots of samples were made for simultaneous measurement by HPLC [16] and bioassay [14], and stored at −80 °C until analysis. All glassware was silanized before use with a 0.5 % aqueous solution (v/v) of Pierce Aquasil (Rockford, IL, USA) according to the manufacturer’s recommended procedure. Solid-phase extraction was performed on C-18 elution cartridge (3.0 ml, J.T. Baker Co.) using a VAC ELUTE SPS24 sample processing station (Analytichem International, Harbour City, CA, USA). The cartridge was preconditioned by sequential washing with 2.5 ml acetonitrile, 2.5 ml methanol and 2.5 ml water. One ml of distilled water was added to the cartridge before adding plasma sample (0.5 ml). Then, the cartridge was washed with 2.5 ml distilled water, 2.5 ml of 0.05 % H3PO4 (pH 4.5) and 2.5 ml of 20 % acetonitrile and completely dried by closing the vacuum for 15 min. The analytes were collected by eluting with 0.5 ml methanol three times and then with 0.5 ml 90:10 n-butyl chloride: ethyl acetate twice. The organic phases were pooled. The combined organic phases were then evaporated to dryness under a stream of nitrogen at room temperature. Extraction residues were reconstituted with 50:50 ethanol: water (0.3 ml), at least 16 h before injection. The injection volume was 100 µl for all samples.\n(§3) The plasma concentration of parent drugs, AL and AS, and their primary metabolites, DHA and 2-hydroxyartelinate (OHAL) respectively, were measured by HPLC with electrochemical detection in reductive mode (HPLC-ECD) [16], which was the only method for artemisinin compounds then (Additional files 1 and 2).\n(§4) HPLC with reductive electrochemical detection was performed using a model BAS 200B liquid chromatography (Bioanalytical Systems, Inc., West Lafayette, Indiana, USA). A Nova-Pak® C18 (3.9 × 150 mm, Waters Corporation, Milford, MA, USA) was used with 40 % acetonitrile in sodium acetate buffer (pH 3.6) as mobile phase. Detection was performed using a thin dual-layer glassy carbon electrode run in parallel mode at a potential of −1.0 V versus Ag/AgCl. The system was operated at the following temperatures: mobile phase 35 °C, column and detector oven 30 °C, cell 31 °C with the flow rate of 1.5 mL min^−1. Artemisinin (ART) was used as an internal standard. Samples were injected via Gilson model 231 XL sampling injector equipped with a 100 µL loop, a Gilson model 401 dilutor/pipettor, a sampler controller keypad (Gilson Medical Electronics, Middleton, WI, USA), and a Valco electrically actuated switching valve (Valco Instrument Co. Inc) was used. This system automatically deoxygenated and injected sample, which permits the high sample throughput associated with automated injection. Data were acquired and analysed using a Millennium^32 Chromatography Manager (Waters Corporation, Milford, MA, USA)."}, "Plasmodium falciparum": {"system": "Plasmodium falciparum", "design": "method as in Newton, 2000 [22]", "settings": "Human, 2 mg kg^−1 IV AS, ref Newton, 2000 [22], cited from earlier work"}, "Plasmodium coatneyi": {"system": "Plasmodium coatneyi", "experiment": "In vivo pharmacodynamics (parasite clearance) in uncomplicated P. coatneyi-infected splenectomized rhesus monkey model", "description": "Twenty-two adult colony-born, Indian-origin rhesus macaques (Macaca mulatta) naïve monkeys were splenectomized and recovered well more than 1 month prior to entering the study. […] Twenty-two animals were randomized to two experiments of 11 monkeys. […] The control monkeys received intramuscular quinine treatment and the experimental animals received intravenous artemisinin candidates.\nBased on our previous model validation, blood smears were performed to detect malaria parasites starting prior to inoculation on day 0 and continued daily (0700–0800 h). The monkeys were physically restrained in the squeeze cage restraint apparatus and approximately 0.1–0.2 ml whole blood was collected from each monkey by lancet puncture of the lateral auricular vein. Thick and thin smears were made on the same microscope glass slide and subsequently fixed in methanol and stained with Giemsa. When the smears were positive, white blood cell count (WBC) and/or red blood cell count (RBC) were also performed using automated haematology analyzer Sysmex K800 to calculate parasite density. Haematocrits were checked as needed. At study days 6–12, additional blood samples were obtained from all animals in the afternoon (1500–1600 h) to monitor parasitaemia levels. Daily blood smears were continued until two consecutive days with negative smears. Then the smear monitoring schedule was reduced to two times weekly for 2 weeks and then weekly for 6 weeks after completion of the last treatment.\nBlood smear staining and parasitaemia determination took about 2 h. […] The control monkey received quinine treatment and the ten experimental animals received intravenous artemisinin derivative candidate.\nAfter a week wash-out and recovery period, P. coatneyi (1 mL of >50,000 parasitized RBCs per microlitre or 5 × 10^6 RBC with a 1 % parasitaemia) were inoculated from a donor monkey into all the monkeys. The treatment was initiated at day 6 after inoculation at a parasitaemia ≥3 % or >200,000 parasites μL^−1 when the cohort of animals was minimally symptomatic. Drugs were given for 3 days with a loading dose initially followed by ½ of the first dose on the 2nd and 3rd days.\nBlood smear were collected once daily in the morning. Once positive parasitaemia was observed and reached 2000 parasites μL^−1, blood smears were collected twice, in the morning and afternoon. Blood for slides preparation were collected from ear for thick and thin smear preparation. Blood films on glass slides were air dried, fixed with 100 % methanol, stained with Giemsa, and read under ×100 magnification oil emersion for parasite determination.\nFirst, a thick smear was performed for parasite detection by reading the slides at least 50 fields under ×100 magnification oil emersion."}, "[2]": {"design": "method as in PMID 2631113", "settings": "rats, 1 h following IV administration; cited from earlier work"}, "in vivo": {"experiment": "in vivo", "settings": "rhesus monkey; for AUC(0-t) / AUC(0-inf) / clearance / Cmax / half-life: iv, 8 mg/kg; for clearance: Cl", "description": "as §1, §2, §3, §4"}, "P. falciparum clone (W2)": {"system": "P. falciparum clone (W2)", "experiment": "Ex vivo Plasmodium falciparum-based bioassay (BA) of rhesus plasma, effect kinetics (ePD) as DHA equivalents", "type": "cell-based", "description": "Blood was collected for pharmacokinetic/pharmacodynamics (PK/PD) analysis after the first dose only due to rapid clearance of artemisinin derivatives. Heparinized blood was collected at 0, 5, 20, 40 min, 1, 3, and 6 h post-dose and plasma samples were separated within 2 h by centrifugation (1500g, 10 min). Aliquots of samples were made for simultaneous measurement by HPLC [16] and bioassay [14], and stored at −80 °C until analysis.\nThe plasma anti-malarial activities of the artemisinin derivatives were measured using a previously published method [14]. […] After centrifugation, the supernatant (100 µL) was transferred to a 96-well flat bottom plate. Twofold serial dilutions were then made using heat inactivated pooled control serum (human:rhesus = 1:1). A suspension of malaria (W2 clone) infected erythrocytes was added to each well. The microtitre plate was placed into a gas-tight plexiglass chamber, flushed with a gas mixture of 90 % CO2, 5 % O2, and 5 % N2, and placed into an incubator (37 °C). Following 24 h incubation, the plate was removed from the chamber and pulsed with [^3H]-hypoxanthine solution to each well and incubated for another 18–20 h before harvesting. The incorporation of [^3H]-hypoxanthine by the parasites in each well was determined by counting in a scintillation counter.\nA dose–response curve for each plasma sample was constructed by plotting [^3H]-hypoxanthine uptake on the Y-axis against the corresponding dilution factor on the X-axis after logarithmic transformation. The dilution factor value that inhibits parasite growth by 50 % (DF50) of each plasma sample was determined."}, "[3]": {"settings": "DHA equivalents, infected rhesus"}}, "note": "Several values for one entry are separate records, joined by “and”; a condition that tells them apart may be missing. Identical values can stand only once."}
{"smiles": "C[C@H]1[C@H](OC(=O)CCC(=O)O)O[C@@H]2O[C@@]3(C)CC[C@H]4[C@H](C)CC[C@@H]1[C@@]24OO3", "note": "[IV AS, Artesunic acid]", "values": [{"measurement": "t1/2, metabolite (M)", "setting": "[1]", "result": 31.1, "unit": "min"}, {"measurement": "Cl", "setting": "[1]; iv, 8 mg/kg", "result": 4.38, "unit": "L hr^-1 kg ^-1"}, {"measurement": "AUC (ePD)", "setting": "Plasmodium falciparum; mean (95 % CI)", "result": "636 (524–748) µmol min L^−1"}, {"measurement": "Cl (ePD)", "setting": "Plasmodium falciparum", "result": "0.83 (0.70–0.96) L h^−1 kg^−1"}, {"measurement": "Parasite/µL, mean", "setting": "Plasmodium coatneyi; 0.29 day post-dose", "result": "32,080 Parasite/µL"}, {"measurement": "Parasite Reduction", "setting": "Plasmodium coatneyi; 0.29 day post-dose, IV AS experiment (mean; IM QN = its control monkey)", "result": 88.6, "unit": "%"}, {"measurement": "Parasite/µL, mean", "setting": "Plasmodium coatneyi; 1.00 day post-dose", "result": "63,163 Parasite/µL"}, {"measurement": "Parasite Reduction", "setting": "Plasmodium coatneyi; 1.00 day post-dose, IV AS experiment", "result": 81.1, "unit": "%"}, {"measurement": "Parasite/µL, mean", "setting": "Plasmodium coatneyi; 1.29 day post-dose", "result": "9,364 Parasite/µL"}, {"measurement": "Parasite Reduction", "setting": "Plasmodium coatneyi; 1.29 day post-dose, IV AS experiment", "result": 97.1, "unit": "%"}, {"measurement": "Parasite/µL, mean", "setting": "Plasmodium coatneyi; 2.00 day post-dose", "result": "1,383 Parasite/µL"}, {"measurement": "Parasite Reduction", "setting": "Plasmodium coatneyi; 2.00 day post-dose, IV AS experiment", "result": 99.4, "unit": "%"}, {"measurement": "Parasite/µL, mean", "setting": "Plasmodium coatneyi; 2.29 day post-dose", "result": 345, "unit": "Parasite/µL"}, {"measurement": "Parasite Reduction", "setting": "Plasmodium coatneyi; 2.29 day post-dose, IV AS experiment", "result": 99.8, "unit": "%"}, {"measurement": "Parasite/µL, mean", "setting": "Plasmodium coatneyi; 3.00 day post-dose", "result": 96, "unit": "Parasite/µL"}, {"measurement": "Parasite Reduction", "setting": "Plasmodium coatneyi; 3.00 day post-dose, IV AS experiment", "result": 100.0, "unit": "%"}, {"measurement": "Parasite Reduction", "setting": "Plasmodium coatneyi; 3.29 day post-dose, IV AS experiment", "result": 99.9, "unit": "%"}, {"measurement": "Parasite/µL, mean", "setting": "Plasmodium coatneyi; 4.00 day post-dose", "result": 66, "unit": "Parasite/µL"}, {"measurement": "Parasite Reduction", "setting": "Plasmodium coatneyi; 4.00 day post-dose, IV AS experiment", "result": 100.0, "unit": "%"}, {"measurement": "Parasite/µL, mean", "setting": "Plasmodium coatneyi; 4.29 day post-dose", "result": 87, "unit": "Parasite/µL"}, {"measurement": "Parasite Reduction", "setting": "Plasmodium coatneyi; 4.29 day post-dose, IV AS experiment", "result": 100.0, "unit": "%"}, {"measurement": "Parasite/µL, mean", "setting": "Plasmodium coatneyi; 5.00 day post-dose", "result": 60, "unit": "Parasite/µL"}, {"measurement": "Parasite Reduction", "setting": "Plasmodium coatneyi; 5.00 day post-dose, IV AS experiment", "result": 100.0, "unit": "%"}, {"measurement": "Parasite/µL, mean", "setting": "Plasmodium coatneyi; 5.29 day post-dose", "result": 31, "unit": "Parasite/µL"}, {"measurement": "Parasite Reduction", "setting": "Plasmodium coatneyi; 5.29 day post-dose, IV AS experiment", "result": 100.0, "unit": "%"}, {"measurement": "Parasite/µL, mean", "setting": "Plasmodium coatneyi; 6.00 day post-dose", "result": 13, "unit": "Parasite/µL"}, {"measurement": "Parasite Reduction", "setting": "Plasmodium coatneyi; 6.00 day post-dose, IV AS experiment", "result": 100.0, "unit": "%"}, {"measurement": "Parasite/µL, mean", "setting": "Plasmodium coatneyi; 6.29 day post-dose", "result": 23, "unit": "Parasite/µL"}, {"measurement": "Parasite Reduction", "setting": "Plasmodium coatneyi; 6.29 day post-dose, IV AS experiment", "result": 100.0, "unit": "%"}, {"measurement": "Parasite/µL, mean", "setting": "Plasmodium coatneyi; 7.00 day post-dose", "result": 15, "unit": "Parasite/µL"}, {"measurement": "Parasite Reduction", "setting": "Plasmodium coatneyi; 7.00 day post-dose, IV AS experiment", "result": 100.0, "unit": "%"}, {"measurement": "Parasite/µL, mean", "setting": "Plasmodium coatneyi; 8.00 day post-dose", "result": 4, "unit": "Parasite/µL"}, {"measurement": "Parasite Reduction", "setting": "Plasmodium coatneyi; 8.00 day post-dose, IV AS experiment", "result": 100.0, "unit": "%"}, {"measurement": "Parasite/µL, mean", "setting": "Plasmodium coatneyi; 9.00 day post-dose", "result": 2, "unit": "Parasite/µL"}, {"measurement": "Parasite Reduction", "setting": "Plasmodium coatneyi; 9.00 day post-dose, IV AS experiment", "result": 100.0, "unit": "%"}, {"measurement": "Parasite/µL, mean", "setting": "Plasmodium coatneyi; 10.00 day post-dose", "result": 0, "unit": "Parasite/µL"}, {"measurement": "Parasite Reduction", "setting": "Plasmodium coatneyi; 10.00 day post-dose, IV AS experiment", "result": 100.0, "unit": "%"}, {"measurement": "PCT of individual animals", "setting": "Plasmodium coatneyi; IV AL: the only two determinable, IV AS: the two most rapid", "result": "4.0 days and 5.0 days"}, {"measurement": "Recrudescence, median (range, n)", "setting": "Plasmodium coatneyi; in vivo", "result": "13 (9–19, 10) days"}, {"measurement": "R, Day (recrudescence day), mean", "setting": "Plasmodium coatneyi; n 2 IV AL, n 10 IV AS", "result": 13, "unit": "days"}, {"measurement": "PC50", "setting": "Plasmodium coatneyi; range in evaluable animals (4 of 8 IV AL, 3 of 10 IV AS)", "result": "0.32 to 5.88", "unit": "h"}, {"measurement": "Median PCT of the remaining eight monkeys", "setting": "Plasmodium coatneyi; without the two most rapid", "result": 8.0, "unit": "days"}, {"measurement": "tissue levels", "setting": "[2]", "result": "high levels of AS were found in brain, fat, intestine and serum"}, {"measurement": "concentration at 1 h", "setting": "in vivo; Plasma concentration, mean", "result": 0.05, "unit": "µM"}, {"measurement": "concentration at 3 h", "setting": "in vivo; Plasma concentration, mean", "result": 0, "unit": "nM"}, {"measurement": "concentration at 6 h", "setting": "in vivo; Plasma concentration, mean", "result": 0, "unit": "nM"}, {"measurement": "AUC(0-t)", "setting": "in vivo; AUC 0-20", "result": 4.78, "unit": "µM·h"}, {"measurement": "AUC(0-t)", "setting": "in vivo; AUC0–20, parent compound (P)", "result": 4.8, "unit": "µM·h"}, {"measurement": "AUC(0-t)", "setting": "in vivo; AUC0–20, parent drug", "result": 4.8, "unit": "µM·h"}, {"measurement": "AUC(0-inf)", "setting": "in vivo; AUC0–∞, parent compound (P)", "result": 4.8, "unit": "µM·h"}, {"measurement": "AUC(0-inf)", "setting": "in vivo; AUC0–∞, parent drug", "result": 4.8, "unit": "µM·h"}, {"measurement": "AUC(0-inf)", "setting": "in vivo; AUC(0-inf)", "result": 5.2, "unit": "µM·h"}, {"measurement": "clearance", "setting": "in vivo", "result": 78.3, "unit": "mL/min/kg"}, {"measurement": "clearance", "setting": "in vivo; parent", "result": 72.3, "unit": "mL/min/kg"}, {"measurement": "Cmax", "setting": "in vivo; parent compound (P)", "result": 28.2, "unit": "µM"}, {"measurement": "Cmax", "setting": "in vivo; parent drug", "result": 28.2, "unit": "µM"}, {"measurement": "half-life", "setting": "in vivo; t1/2, parent compound (P)", "result": 3.47, "unit": "min"}, {"measurement": "half-life", "setting": "in vivo; t 1/2, z", "result": 4.17, "unit": "min"}, {"measurement": "Antimalarial activity expressed as DHA equi., mean", "setting": "P. falciparum clone (W2); 0.08 h, healthy rhesus", "result": 17.94, "unit": "µmol/L"}, {"measurement": "Antimalarial activity expressed as DHA equi., mean", "setting": "P. falciparum clone (W2); 0.08 h, infected rhesus", "result": 22.45, "unit": "µmol/L"}, {"measurement": "Antimalarial activity expressed as DHA equi., mean", "setting": "P. falciparum clone (W2); 0.33 h, healthy rhesus", "result": 5.77, "unit": "µmol/L"}, {"measurement": "Antimalarial activity expressed as DHA equi., mean", "setting": "P. falciparum clone (W2); 0.33 h, infected rhesus", "result": 4.28, "unit": "µmol/L"}, {"measurement": "Antimalarial activity expressed as DHA equi., mean", "setting": "P. falciparum clone (W2); 0.67 h, healthy rhesus", "result": 3.16, "unit": "µmol/L"}, {"measurement": "Antimalarial activity expressed as DHA equi., mean", "setting": "P. falciparum clone (W2); 0.67 h, infected rhesus", "result": 3.19, "unit": "µmol/L"}, {"measurement": "Antimalarial activity expressed as DHA equi., mean", "setting": "P. falciparum clone (W2); 1.0 h, healthy rhesus", "result": 1.75, "unit": "µmol/L"}, {"measurement": "Antimalarial activity expressed as DHA equi., mean", "setting": "P. falciparum clone (W2); 1.0 h, infected rhesus", "result": 1.58, "unit": "µmol/L"}, {"measurement": "Antimalarial activity expressed as DHA equi., mean", "setting": "P. falciparum clone (W2); 3.0 h, healthy rhesus", "result": 0.22, "unit": "µmol/L"}, {"measurement": "Antimalarial activity expressed as DHA equi., mean", "setting": "P. falciparum clone (W2); 3.0 h, infected rhesus", "result": 0.12, "unit": "µmol/L"}, {"measurement": "Antimalarial activity expressed as DHA equi., mean", "setting": "P. falciparum clone (W2); 6.0 h, healthy rhesus", "result": 0, "unit": "µmol/L"}, {"measurement": "Antimalarial activity expressed as DHA equi., mean", "setting": "P. falciparum clone (W2); 6.0 h, infected rhesus", "result": 0, "unit": "µmol/L"}, {"measurement": "AUC0–20, ePD", "setting": "P. falciparum clone (W2); [3]", "result": 242, "unit": "µM·min"}, {"measurement": "AUC0–∞, ePD", "setting": "P. falciparum clone (W2); [3]", "result": 485, "unit": "µM·min"}, {"measurement": "Bioactivity %AUC20", "setting": "P. falciparum clone (W2); mean, healthy rhesus", "result": 48.3, "unit": "%"}, {"measurement": "Bioactivity Cl", "setting": "P. falciparum clone (W2); mean, healthy rhesus", "result": 3.07, "unit": "L hr^-1 kg ^-1"}, {"measurement": "Bioactivity %AUC20", "setting": "P. falciparum clone (W2); mean, infected rhesus", "result": 55.0, "unit": "%"}, {"measurement": "Bioactivity (DHA equi.) AUC(0-inf)", "setting": "P. falciparum clone (W2); mean, infected rhesus", "result": "476 (346–607) µmole min L^-1"}, {"measurement": "Bioactivity Cl", "setting": "P. falciparum clone (W2); mean, infected rhesus", "result": "3.18 (2.25–4.11) L hr^-1 kg ^-1"}, {"measurement": "Bioactivity Cl", "setting": "P. falciparum clone (W2); mean, infected rhesus, listed as I.V. AS/Na", "result": 3.18, "unit": "L hr^-1 kg ^-1"}]}
